Laboratory results from PMC9573387, “The First 5′-Phosphorylated 1,2,3-Triazolyl Nucleoside Analogues with Uracil and Quinazoline-2,4-Dione Moieties: A Synthesis and Antiviral Evaluation” (Molecules, 2022).
Where a name gives a salt, the structure may show the parent alone. Read-outs that look alike come from different tables or passages of the source.

What was measured:
HIV = details: cited from earlier work
wild-type HIV RT = test system: wild-type HIV RT; parameters: method as in PMID 17434736; details: cited from earlier work
[1] = test system: recombinant HIV reverse transcriptases (RT); parameters: method as in PMID 17434736; details: cited from earlier work
[2] = test system: A/Puerto Rico/8/34 (H1N1) influenza virus; assay: microbe, parasite or virus in culture; format: cell-based; details: for IC50: 48 h, A/Puerto Rico/8/34 (H1N1), MDCK cells, read-out: IC50 (50% inhibition of virus replication)
in vitro = details: dog
MDCK (ATCC CCL-34) cells [3] = test system: MDCK (ATCC CCL-34) cells
[4] = test system: A/Puerto Rico/8/34 (H1N1) influenza virus; parameters: method as in PMID 32930935; details: parent nucleoside analogues, cited from earlier work; for IC50: A/Puerto Rico/8/34 (H1N1), read-out: IC50 (50% inhibition of virus replication)
MDCK (ATCC CCL-34) cells [5] = details: read-out: CC50 (median cytotoxic concentration); parent nucleoside analogues; cited from earlier work

**Q.** With `Nc1nc(=O)n([C@H]2C[C@@H](CO)C2)cc1F` [5-fluoro-1-[cis-3-(hydroxymethyl)-cyclobutyl]-cytosine] as the molecule, how does the “Anti-HIV activity, inactive up to” value (HIV; in vitro) read?
**A.** > 100 µM

**Q.** What does the source list for `Nc1nc(=O)n([C@H]2C[C@@H](COP(=O)(O)OP(=O)(O)OP(=O)(O)O)C2)cc1F` [5′-triphosphate of 5-fluoro-1-[cis-3-(hydroxymethyl)-cyclobutyl]-cytosine]?
**A.** IC50 (wild-type HIV RT): 6.9 µM; IC50 [1]: 4.7 µM

**Q.** With `CCOP(=O)(OCC)OC[C@H]1O[C@@H](n2cc(Cn3ccc(=O)[nH]c3=O)nn2)[C@H](O)[C@@H]1O` [Compound 11a] as the molecule, how does the IC50 ([2]; Influenza A virus, H1N1, MDCK) read?
**A.** 434 ± 39 µM

**Q.** And the CC50 (in vitro)?
**A.** > 650 µM

**Q.** Which IC50 ([2]; Influenza A virus, H1N1, MDCK) does the source give for `CCOP(=O)(OCC)OC[C@H]1O[C@@H](n2cc(Cn3c(=O)[nH]c(=O)c4ccccc43)nn2)[C@H](O)[C@@H]1O` [Compound 11b] here?
**A.** 411 ± 51 µM

**Q.** What about the CC50 (in vitro) of the same molecule?
**A.** > 587 µM

**Q.** Which results are given for `CCOP(=O)(OCC)OC[C@H]1O[C@@H](n2cc(CCCCn3ccc(=O)[nH]c3=O)nn2)[C@H](O)[C@@H]1O` [Compound 12a, 1-[4-(2,4-dioxo-pyrimidine-1-yl-butyl)-1,2,3-triazol-1-yl]--D-ribofuranose-5-yl diethyl phosphate]?
**A.** Antiviral activity against H1N1 (A/PR/8/34) influenza virus, in words [2]: inactive; IC50 [2]: 250 ± 22 µM; IC50 ([2]; Influenza A virus, H1N1, MDCK): > 180 µM; CC50 (in vitro): > 596 µM

**Q.** Which results are given for `CCOP(=O)(OCC)OC[C@H]1O[C@@H](n2cc(CCCCn3c(=O)[nH]c(=O)c4ccccc43)nn2)[C@H](O)[C@@H]1O` [Compound 12b]?
**A.** IC50 ([2]; Influenza A virus, H1N1, MDCK): > 542 µM; CC50 (in vitro): > 542 µM

**Q.** For `O=c1ccn(Cc2cn([C@@H]3O[C@H](COP(=O)(Oc4ccccc4)Oc4ccccc4)[C@@H](O)[C@H]3O)nn2)c(=O)[nH]1` [Compound 13a], which IC50 ([2]; Influenza A virus, H1N1, MDCK) is on record?
**A.** 121 ± 7 µM

**Q.** What about the CC50 (in vitro) of the same molecule?
**A.** > 538 µM

**Q.** For `O=c1[nH]c(=O)n(Cc2cn([C@@H]3O[C@H](COP(=O)(Oc4ccccc4)Oc4ccccc4)[C@@H](O)[C@H]3O)nn2)c2ccccc12` [Compound 13b], which “Antiviral activity exceeding that of the parent compound” value ([2]; IC50 versus parent compound 33b) is on record?
**A.** 2 times

**Q.** And the IC50 ([2]; Influenza A virus, H1N1, MDCK)?
**A.** 17.9 ± 3 µM

**Q.** And the “Increase of selectivity index over the parent compound” value ([2]; SI versus parent compound 33b)?
**A.** 7 times

**Q.** What about the CC50 (in vitro) of the same molecule?
**A.** > 494 µM

**Q.** Which results are given for `O=c1ccn(CCCCc2cn([C@@H]3O[C@H](COP(=O)(Oc4ccccc4)Oc4ccccc4)[C@@H](O)[C@H]3O)nn2)c(=O)[nH]1` [Compound 14a]?
**A.** Antiviral activity against H1N1 (A/PR/8/34) influenza virus, in words [2]: inactive; IC50 [2]: 183 ± 15 µM; IC50 ([2]; Influenza A virus, H1N1, MDCK): > 180 µM; CC50 (in vitro): > 500 µM

**Q.** With `O=c1[nH]c(=O)n(CCCCc2cn([C@@H]3O[C@H](COP(=O)(Oc4ccccc4)Oc4ccccc4)[C@@H](O)[C@H]3O)nn2)c2ccccc12` [Compound 14b] as the molecule, how does the “Increase of cytotoxicity over the parent compound” value (MDCK (ATCC CCL-34) cells [3]; CC50 versus parent compound 34b) read?
**A.** 7 fold

**Q.** And the “SI (selectivity index, CC50/IC50 ratio)” value [2]?
**A.** 2

**Q.** And the IC50 ([2]; Influenza A virus, H1N1, MDCK)?
**A.** 51 ± 4 µM

**Q.** What about the CC50 (in vitro) of the same molecule?
**A.** 98 ± 6 µM

**Q.** What does the source list for `COC(=O)[C@H](C)NP(=O)(OC[C@H]1O[C@@H](n2cc(Cn3ccc(=O)[nH]c3=O)nn2)[C@H](O)[C@@H]1O)Oc1ccccc1` (stereo partly shown) [Compound 17a]?
**A.** IC50 ([2]; Influenza A virus, H1N1, MDCK): 25 ± 4 µM; CC50 (in vitro): > 530 µM

**Q.** Which IC50 ([2]; Influenza A virus, H1N1, MDCK) does the source give for `COC(=O)[C@H](C)NP(=O)(OC[C@H]1O[C@@H](n2cc(Cn3c(=O)[nH]c(=O)c4ccccc43)nn2)[C@H](O)[C@@H]1O)Oc1ccccc1` (stereo partly shown) [Compound 17b] here?
**A.** > 487 µM

**Q.** What about the CC50 (in vitro) of the same molecule?
**A.** > 487 µM

**Q.** What does the source list for `COC(=O)[C@H](C)NP(=O)(OC[C@H]1O[C@@H](n2cc(CCCCn3ccc(=O)[nH]c3=O)nn2)[C@H](O)[C@@H]1O)Oc1ccccc1` (stereo partly shown) [Compound 18a]?
**A.** Antiviral activity against H1N1 (A/PR/8/34) influenza virus, in words [2]: inactive; CC50 (in vitro): > 463 µM

**Q.** For `COC(=O)[C@H](C)NP(=O)(OC[C@H]1O[C@@H](n2cc(CCCCn3c(=O)[nH]c(=O)c4ccccc43)nn2)[C@H](O)[C@@H]1O)Oc1ccccc1` (stereo partly shown) [Compound 18b], which IC50 ([2]; Influenza A virus, H1N1, MDCK) is on record?
**A.** > 456 µM

**Q.** And the CC50 (in vitro)?
**A.** > 456 µM

**Q.** What does the source list for `O=c1ccn(Cc2cn([C@@H]3O[C@H](CO[PH](=O)O)[C@@H](O)[C@H]3O)nn2)c(=O)[nH]1` [Compound 23a, 1-[4-(2,4-dioxo-pyrimidine-1-yl-methyl)-1,2,3-triazol-1-yl]--D-ribofuranose-5-yl H-phosphonate triethylammonium salt]?
**A.** IC50 ([2]; Influenza A virus): 204 ± 28 µM; CC50 (in vitro): > 612 µM

**Q.** For `O=c1[nH]c(=O)n(Cc2cn([C@@H]3O[C@H](CO[PH](=O)O)[C@@H](O)[C@H]3O)nn2)c2ccccc12` [Compound 23b], which IC50 ([2]; Influenza A virus) is on record?
**A.** 176 ± 21 µM

**Q.** And the CC50 (in vitro)?
**A.** > 555 µM

**Q.** For `O=c1ccn(CCCCc2cn([C@@H]3O[C@H](CO[PH](=O)O)[C@@H](O)[C@H]3O)nn2)c(=O)[nH]1` [Compound 24a], which “Antiviral activity against H1N1 (A/PR/8/34) influenza virus, in words” value (from here on “Antiviral activity against H1N1”) [2] is on record?
**A.** inactive

**Q.** And the IC50 ([2]; Influenza A virus)?
**A.** 218 ± 32 µM

**Q.** And the CC50 (in vitro)?
**A.** > 564 µM

**Q.** For `O=c1[nH]c(=O)n(CCCCc2cn([C@@H]3O[C@H](CO[PH](=O)O)[C@@H](O)[C@H]3O)nn2)c2ccccc12` [Compound 24b], which IC50 ([2]; Influenza A virus, H1N1, MDCK) is on record?
**A.** > 516 µM

**Q.** And the CC50 (in vitro)?
**A.** > 516 µM

**Q.** For `O=c1ccn(Cc2cn([C@@H]3O[C@H](COP(=O)(O)O)[C@@H](O)[C@H]3O)nn2)c(=O)[nH]1` [Compound 25a], which IC50 ([2]; Influenza A virus, H1N1, MDCK) is on record?
**A.** > 494 µM

**Q.** And the CC50 (in vitro)?
**A.** > 494 µM

**Q.** Which IC50 ([2]; Influenza A virus) does the source give for `O=c1[nH]c(=O)n(Cc2cn([C@@H]3O[C@H](COP(=O)(O)O)[C@@H](O)[C@H]3O)nn2)c2ccccc12` [Compound 25b] here?
**A.** 159 ± 19 µM

**Q.** And the CC50 (in vitro)?
**A.** > 458 µM

**Q.** For `O=c1ccn(CCCCc2cn([C@@H]3O[C@H](COP(=O)(O)O)[C@@H](O)[C@H]3O)nn2)c(=O)[nH]1` [Compound 26a], which “Antiviral activity against H1N1” value [2] is on record?
**A.** inactive

**Q.** What about the IC50 ([2]; Influenza A virus) of the same molecule?
**A.** 195 ± 26 µM

**Q.** And the CC50 (in vitro)?
**A.** > 463 µM

**Q.** For `O=c1[nH]c(=O)n(CCCCc2cn([C@@H]3O[C@H](COP(=O)(O)O)[C@@H](O)[C@H]3O)nn2)c2ccccc12` [Compound 26b], which IC50 ([2]; Influenza A virus) is on record?
**A.** > 430 µM

**Q.** What about the CC50 (in vitro) of the same molecule?
**A.** > 430 µM

**Q.** Which IC50 [4] does the source give for `O=c1ccn(Cc2cn([C@@H]3O[C@H](CO)[C@@H](O)[C@H]3O)nn2)c(=O)[nH]1` [Compound 33a] here?
**A.** > 880 µM

**Q.** What about the “Antiviral activity against H1N1” value [4] of the same molecule?
**A.** completely inactive

**Q.** And the CC50 (MDCK (ATCC CCL-34) cells [5])?
**A.** > 880 µM

**Q.** For `O=c1[nH]c(=O)n(Cc2cn([C@@H]3O[C@H](CO)[C@@H](O)[C@H]3O)nn2)c2ccccc12` [Compound 33b], which IC50 [4] is on record?
**A.** 42 ± 5 µM

**Q.** What about the “SI (selectivity index, CC50/IC50 ratio)” value [2] of the same molecule?
**A.** 3

**Q.** For `O=c1ccn(CCCCc2cn([C@@H]3O[C@H](CO)[C@@H](O)[C@H]3O)nn2)c(=O)[nH]1` [Compound 34a], which IC50 [4] is on record?
**A.** > 180 µM

**Q.** What about the “Antiviral activity against H1N1” value [4] of the same molecule?
**A.** inactive

**Q.** What about the CC50 (MDCK (ATCC CCL-34) cells [5]) of the same molecule?
**A.** > 817 µM

**Q.** With `O=c1[nH]c(=O)n(CCCCc2cn([C@@H]3O[C@H](CO)[C@@H](O)[C@H]3O)nn2)c2ccccc12` [Compound 34b] as the molecule, how does the IC50 [4] read?
**A.** 30 ± 4 µM

**Q.** And the CC50 (MDCK (ATCC CCL-34) cells [5])?
**A.** > 719 µM

**Q.** For `CCC(CC)O[C@@H]1C=C(C(=O)O)C[C@H](N)[C@H]1NC(C)=O` [Oseltamivir carboxylate, reference compound], which “SI (selectivity index, CC50/IC50 ratio)” value [2] is on record?
**A.** >667

**Q.** And the IC50 ([2]; Influenza A virus)?
**A.** 0.3 ± 0.06 µM

**Q.** And the CC50 (in vitro)?
**A.** > 200 µM

**Q.** Which “Better activity against HIV than the parent nucleoside analogue” value (HIV; ProTide versus parent) does the source give for `COC(=O)[C@H](C)NP(=O)(OC[C@H]1O[C@@H](n2cc(C)c(=O)[nH]c2=O)C[C@@H]1N=[N+]=[N-])Oc1ccccc1` (stereo partly drawn) [ProTide-ZDV, 5′-(phenylmethoxy-L-alaninyl)phosphate of Zidovudine] here?
**A.** more than 100 times

**Q.** For `NC(=O)c1ncn([C@@H]2O[C@H](CO)[C@@H](O)[C@H]2O)n1` [Ribavirin, reference compound], which CC50 (MDCK (ATCC CCL-34) cells [3]; dog) is on record?
**A.** 94 ± 48 µM

**Q.** What about the “SI (selectivity index, CC50/IC50 ratio)” value [2] of the same molecule?
**A.** 3

**Q.** What about the IC50 ([2]; Influenza A virus) of the same molecule?
**A.** 31 ± 9 µM

**Q.** Which CC50 (MDCK (ATCC CCL-34) cells [3]; read-out: CC50 (median cytotoxic concentration), MDCK cells, MTT, concentration causing 50% cell death) does the source give for `CC(N)C12CC3CC(CC(C3)C1)C2` (stereo not shown) [Rimantadine, reference compound] here?
**A.** 340 ± 16 µM

**Q.** What about the “SI (selectivity index, CC50/IC50 ratio)” value [2] of the same molecule?
**A.** 4

**Q.** And the IC50 ([2]; Influenza A virus, H1N1, MDCK)?
**A.** 77 ± 8 µM
